Test results from paper PMC9284121, “Florfenicol-Polyarginine Conjugates Exhibit Promising Antibacterial Activity Against Resistant Strains” (Frontiers in Chemistry, 2022).
Values after ≈ are worked out from the molar mass of the structure shown. Read-outs that look alike come from different tables or passages of the source. Where a SMILES comes first, the peptide text is derived from it.

Experiments:
Assay in all cases: microbe, parasite or virus in culture
MRSA (ATCC 43300) = format: cell-based, methicillin-resistant S. aureus
Procedure: (§1) All the florfenicol-polyarginine conjugates were tested against Gram-positive and Gram-negative bacteria, including MRSA (ATCC 43300), S. aureus (ATCC 25923), E. coli (ATCC 25922), clinical strains of E. coli (2019XJ06, 2019XJ25, 2018XJ108, 2018XJ105, 2018XJ30) and clinical strains of florfenicol resistant E. coli (2017XJ30, 2019XJ20).
(§2) Gram-negative E. coli (ATCC 25922), clinical strains of E. coli (2019XJ06, 2019XJ25, 2018XJ108, 2018XJ105, 2018XJ30) and clinical strains of florfenicol resistant E. coli (2017XJ30, 2019XJ20) and Gram-positive MRSA (ATCC 43300) and S. aureus (ATCC 25923) were maintained in 50% glycerol at −80°C up to the time of use. The bacterial strains were cultured in Muller-Hinton broth (Guangdong Huan Kai Microbial Sci. &Tech. Co., Ltd. in China) media. Mueller-Hinton agar (Guangdong Huan Kai Microbial Sci. & Tech. Co., Ltd. in China) was used as growth medium in solid media.
(§3) CLSI guidelines were followed for determining MICs of all florfenicol-polyarginine conjugates by the broth microdilution method. The required bacterial (E. coli, S. aureus and MRSA) single colony was inoculated into Muller-Hinton broth (MHB) and cultured for 4–6 h. And then, the bacteria were adjusted to 10^6 CFU/ml in cultures. All compounds were prepared into a stock solution at a concentration of 0.1 mol/L with DMSO. The stock solutions were then diluted to required concentration (100, 50, 25, 12.5, 6.25, 3.125, 1.56, 0.78, 0.39 μmol/L) with MHB media. Subsequently, a 96 well plate was filled with these dilutions and 10^6 CFU/ml bacterial suspension. The diluted compounds of different concentrations (100 µl) were first added to 96 well plate, and then 100 µl bacterial dilutions (10^6 CFU/ml) was added. The negative and positive controls were 200 µl of MHB media and 100 µl of bacterial suspension combined with 100 µl of MHB media, respectively. The experiment of each compound was repeated three times, and each experiment was at least twice repeated. The 96 well plates were incubated at 37°C for 16–24 h. MIC indicated antibacterial activity. Florfenicol was used as a control drug.

[1] = test system: florfenicol resistant E. coli clinical strain 2019XJ20; format: cell-based, Escherichia coli
Procedure: as §1, §2, §3

[2] = test system: E. coli clinical strain 2019XJ06; format: cell-based, Escherichia coli
Procedure: as §1, §2, §3

[3] = test system: E. coli clinical strain 2018XJ108; format: cell-based, Escherichia coli
Procedure: as §1, §2, §3

[4] = test system: florfenicol resistant E. coli clinical strain 2017XJ30; format: cell-based, Escherichia coli
Procedure: as §1, §2, §3

[5] = test system: E. coli clinical strain 2019XJ25; format: cell-based, Escherichia coli
Procedure: as §1, §2, §3

[6] = test system: E. coli clinical strain 2018XJ30; format: cell-based, Escherichia coli
Procedure: as §1, §2, §3

[7] = test system: E. coli clinical strain 2018XJ105; format: cell-based, Escherichia coli
Procedure: as §1, §2, §3

E.coli (ATCC 25922) = format: cell-based, Escherichia coli
Procedure: as §1, §2, §3

S. aureus (ATCC 292130) = format: cell-based, Staphylococcus aureus
[8] = test system: 10 strains tested (E. coli, S. aureus, MRSA, clinical E. coli strains); format: cell-based
Procedure: as §1, §2, §3

[9] = florfenicol resistant clinical strain 2019XJ20
[10] = florfenicol resistant clinical strain 2017XJ30
[11] = Staphylococcus aureus, MRSA (ATCC 43300), MHB, read-out: MIC
[12] = Escherichia coli, against the 10 strains tested, read-out: MIC
[13] = Escherichia coli, florfenicol resistant E. coli 2019XJ20, MHB, read-out: MIC
[14] = Escherichia coli, clinical E. coli 2019XJ06, MHB, read-out: MIC
[15] = Escherichia coli, clinical E. coli 2018XJ108, MHB, read-out: MIC
[16] = Escherichia coli, florfenicol resistant E. coli 2017XJ30, MHB, read-out: MIC
[17] = Escherichia coli, clinical E. coli 2019XJ25, MHB, read-out: MIC
[18] = Escherichia coli, clinical E. coli 2018XJ30, MHB, read-out: MIC
[19] = Escherichia coli, clinical E. coli 2018XJ105, MHB, read-out: MIC
[20] = Escherichia coli, ATCC25922, E.coli (ATCC 25922), MHB, read-out: MIC
[21] = Staphylococcus aureus, ATCC292130, S. aureus (ATCC 292130), MHB, read-out: MIC

Structure (SMILES) | MIC (MRSA (ATCC 43300); ATCC 43300) | MIC [1, 9] | MIC ([2]; clinical strain 2019XJ06) | MIC ([3]; clinical strain 2018XJ108) | MIC [4, 10] | MIC ([5]; clinical strain 2019XJ25) | MIC ([6]; clinical strain 2018XJ30) | MIC ([7]; clinical strain 2018XJ105) | MIC (E.coli (ATCC 25922); ATCC 25922) | MIC (S. aureus (ATCC 292130); ATCC 292130) | also measured
N=C(N)NCCC[C@H](NC(=O)[C@H](CCCNC(=N)N)NC(=O)[C@H](CCCNC(=N)N)NC(=O)[C@H](CCCNC(=N)N)NC(=O)[C@H](CCCNC(=N)N)NC(=O)[C@H](CCCNC(=N)N)NC(=O)[C@H](CCCNC(=N)N)NC(=O)[C@@H](N)CCCNC(=N)N)C(N)=O [Compound D6] | 25 µM (≈ 31.7 µg/mL) | 50 µM (≈ 63.3 µg/mL) | 50 µM (≈ 63.3 µg/mL) | 50 µM (≈ 63.3 µg/mL) | 50 µM (≈ 63.3 µg/mL) | 50 µM (≈ 63.3 µg/mL) | 50 µM (≈ 63.3 µg/mL) | 50 µM (≈ 63.3 µg/mL) | 50 µM (≈ 63.3 µg/mL) | 25 µM (≈ 31.7 µg/mL) | MIC [8]: 25 to 100 µM
N=C(N)NCCC[C@H](NC(=O)[C@@H](N)CCCNC(=N)N)C(N)=O [Compound D3] (H-Arg-Arg-NH2) | >100 µM | >100 µM | >100 µM | >100 µM | >100 µM | >100 µM | >100 µM | >100 µM | >100 µM | >100 µM | –
CS(=O)(=O)c1ccc([C@@H](OC(=O)CCC(=O)O)[C@@H](CF)NC(=O)C(Cl)Cl)cc1 [Compound C1, florfenicol succinate] | – | – | – | – | – | – | – | – | – | – | MIC (MRSA (ATCC 43300); [11]): > 100 µM; MIC [8, 12]: > 100 µM; MIC [1, 13]: > 100 µM; MIC [2, 14]: > 100 µM; MIC [3, 15]: > 100 µM; MIC [4, 16]: > 100 µM; MIC [5, 17]: > 100 µM; MIC [6, 18]: > 100 µM; MIC [7, 19]: > 100 µM; MIC (E.coli (ATCC 25922); [20]): > 100 µM; MIC (S. aureus (ATCC 292130); [21]): > 100 µM
N=C(N)NCCC[C@H](NC(=O)[C@H](CCCNC(=N)N)NC(=O)[C@H](CCCNC(=N)N)NC(=O)[C@H](CCCNC(=N)N)NC(=O)[C@H](CCCNC(=N)N)NC(=O)[C@@H](N)CCCNC(=N)N)C(N)=O [Compound D5] | 50 µM (≈ 47.7 µg/mL) | 100 µM (≈ 95.4 µg/mL) | 100 µM (≈ 95.4 µg/mL) | 100 µM (≈ 95.4 µg/mL) | 100 µM (≈ 95.4 µg/mL) | 100 µM (≈ 95.4 µg/mL) | 100 µM (≈ 95.4 µg/mL) | 100 µM (≈ 95.4 µg/mL) | 100 µM (≈ 95.4 µg/mL) | 50 µM (≈ 47.7 µg/mL) | MIC [8]: 25 to 100 µM
COC(=O)[C@@H](N)CCCNC(=N)N [Compound D1] | >100 µM | >100 µM | >100 µM | >100 µM | >100 µM | >100 µM | >100 µM | >100 µM | >100 µM | >100 µM | –
N=C(N)NCCC[C@H](N)C(N)=O [Compound D2] | >100 µM | >100 µM | >100 µM | >100 µM | >100 µM | >100 µM | >100 µM | >100 µM | >100 µM | >100 µM | –
N=C(N)NCCC[C@H](NC(=O)[C@H](CCCNC(=N)N)NC(=O)[C@H](CCCNC(=N)N)NC(=O)[C@@H](N)CCCNC(=N)N)C(N)=O [Compound D4] (H-RRRR-NH2) | >100 µM | >100 µM | >100 µM | >100 µM | >100 µM | >100 µM | >100 µM | >100 µM | >100 µM | >100 µM | –
CS(=O)(=O)c1ccc([C@@H](OC(=O)CCCC(=O)O)[C@@H](CF)NC(=O)C(Cl)Cl)cc1 [Compound C2, florfenicol glutarate] | – | – | – | – | – | – | – | – | – | – | MIC (MRSA (ATCC 43300); [11]): > 100 µM; MIC [8, 12]: > 100 µM; MIC [1, 13]: > 100 µM; MIC [2, 14]: > 100 µM; MIC [3, 15]: > 100 µM; MIC [4, 16]: > 100 µM; MIC [5, 17]: > 100 µM; MIC [6, 18]: > 100 µM; MIC [7, 19]: > 100 µM; MIC (E.coli (ATCC 25922); [20]): > 100 µM; MIC (S. aureus (ATCC 292130); [21]): > 100 µM

Now from value to compound, other results behind:

MIC (MRSA (ATCC 43300); ATCC 43300) | MIC [1, 9] | MIC ([2]; clinical strain 2019XJ06) | MIC ([3]; clinical strain 2018XJ108) | MIC [4, 10] | MIC ([5]; clinical strain 2019XJ25) | MIC ([6]; clinical strain 2018XJ30) | MIC ([7]; clinical strain 2018XJ105) | MIC (E.coli (ATCC 25922); ATCC 25922) | MIC (S. aureus (ATCC 292130); ATCC 292130) | Structure (SMILES) | also measured
25 µM (≈ 15.3 µg/mL) | >100 µM | 25 µM (≈ 15.3 µg/mL) | 25 µM (≈ 15.3 µg/mL) | >100 µM | 25 µM (≈ 15.3 µg/mL) | 25 µM (≈ 15.3 µg/mL) | 25 µM (≈ 15.3 µg/mL) | 25 µM (≈ 15.3 µg/mL) | 25 µM (≈ 15.3 µg/mL) | CS(=O)(=O)c1ccc([C@@H](OC(=O)CCC(=O)N[C@@H](CCCNC(=N)N)C(N)=O)[C@@H](CF)NC(=O)C(Cl)Cl)cc1 [Compound E2] | –
>100 µM | >100 µM | >100 µM | >100 µM | >100 µM | >100 µM | >100 µM | >100 µM | >100 µM | >100 µM | COC(=O)[C@H](CCCNC(=N)N)NC(=O)CCCC(=O)O[C@H](c1ccc(S(C)(=O)=O)cc1)[C@@H](CF)NC(=O)C(Cl)Cl [Compound E7] | –
50 µM (≈ 31.4 µg/mL) | >100 µM | 25 µM (≈ 15.7 µg/mL) | 25 µM (≈ 15.7 µg/mL) | >100 µM | 25 µM (≈ 15.7 µg/mL) | 25 µM (≈ 15.7 µg/mL) | 25 µM (≈ 15.7 µg/mL) | 25 µM (≈ 15.7 µg/mL) | 50 µM (≈ 31.4 µg/mL) | COC(=O)[C@H](CCCNC(=N)N)NC(=O)CCC(=O)O[C@H](c1ccc(S(C)(=O)=O)cc1)[C@@H](CF)NC(=O)C(Cl)Cl [Compound E1] | –
>100 µM | >100 µM | >100 µM | >100 µM | >100 µM | >100 µM | >100 µM | >100 µM | >100 µM | >100 µM | CS(=O)(=O)c1ccc([C@@H](OC(=O)CCCC(=O)N[C@@H](CCCNC(=N)N)C(N)=O)[C@@H](CF)NC(=O)C(Cl)Cl)cc1 [Compound E8] | –
>100 µM | >100 µM | >100 µM | >100 µM | >100 µM | >100 µM | >100 µM | >100 µM | >100 µM | >100 µM | COC(=O)[C@H](CCCNC(=N)N)NC(=O)CCCCC(=O)O[C@H](c1ccc(S(C)(=O)=O)cc1)[C@@H](CF)NC(=O)C(Cl)Cl [Compound E13] | –
>100 µM | >100 µM | >100 µM | >100 µM | >100 µM | >100 µM | >100 µM | >100 µM | >100 µM | >100 µM | CS(=O)(=O)c1ccc([C@@H](OC(=O)CCCCC(=O)N[C@@H](CCCNC(=N)N)C(N)=O)[C@@H](CF)NC(=O)C(Cl)Cl)cc1 [Compound E14] | –
